Measured values published in US9340590B2 (priority 2011, dated 2016).
pIC50: −log10 of the molar value. Read-outs that look alike come from different tables or passages of the source. Positions of bridges follow the written chain, without caps; N, C: chain ends. Non-standard residues stand in square brackets, D forms with d. Residues, ends and D or L forms follow the SMILES beside them. Arg(Me2s) = CN=C(NC)NCCC[C@H](N)C(=O)O

What was measured:
Test in all cases: cell-based
hNav1.3 = hNav1.3 (Homo sapiens, UniProt Q9NY46); conditions: IonWorks Quattro, read-out: IWQ Use Nav1.3
hNav1.3, sequence (Q9NY46 whole entry, looked up): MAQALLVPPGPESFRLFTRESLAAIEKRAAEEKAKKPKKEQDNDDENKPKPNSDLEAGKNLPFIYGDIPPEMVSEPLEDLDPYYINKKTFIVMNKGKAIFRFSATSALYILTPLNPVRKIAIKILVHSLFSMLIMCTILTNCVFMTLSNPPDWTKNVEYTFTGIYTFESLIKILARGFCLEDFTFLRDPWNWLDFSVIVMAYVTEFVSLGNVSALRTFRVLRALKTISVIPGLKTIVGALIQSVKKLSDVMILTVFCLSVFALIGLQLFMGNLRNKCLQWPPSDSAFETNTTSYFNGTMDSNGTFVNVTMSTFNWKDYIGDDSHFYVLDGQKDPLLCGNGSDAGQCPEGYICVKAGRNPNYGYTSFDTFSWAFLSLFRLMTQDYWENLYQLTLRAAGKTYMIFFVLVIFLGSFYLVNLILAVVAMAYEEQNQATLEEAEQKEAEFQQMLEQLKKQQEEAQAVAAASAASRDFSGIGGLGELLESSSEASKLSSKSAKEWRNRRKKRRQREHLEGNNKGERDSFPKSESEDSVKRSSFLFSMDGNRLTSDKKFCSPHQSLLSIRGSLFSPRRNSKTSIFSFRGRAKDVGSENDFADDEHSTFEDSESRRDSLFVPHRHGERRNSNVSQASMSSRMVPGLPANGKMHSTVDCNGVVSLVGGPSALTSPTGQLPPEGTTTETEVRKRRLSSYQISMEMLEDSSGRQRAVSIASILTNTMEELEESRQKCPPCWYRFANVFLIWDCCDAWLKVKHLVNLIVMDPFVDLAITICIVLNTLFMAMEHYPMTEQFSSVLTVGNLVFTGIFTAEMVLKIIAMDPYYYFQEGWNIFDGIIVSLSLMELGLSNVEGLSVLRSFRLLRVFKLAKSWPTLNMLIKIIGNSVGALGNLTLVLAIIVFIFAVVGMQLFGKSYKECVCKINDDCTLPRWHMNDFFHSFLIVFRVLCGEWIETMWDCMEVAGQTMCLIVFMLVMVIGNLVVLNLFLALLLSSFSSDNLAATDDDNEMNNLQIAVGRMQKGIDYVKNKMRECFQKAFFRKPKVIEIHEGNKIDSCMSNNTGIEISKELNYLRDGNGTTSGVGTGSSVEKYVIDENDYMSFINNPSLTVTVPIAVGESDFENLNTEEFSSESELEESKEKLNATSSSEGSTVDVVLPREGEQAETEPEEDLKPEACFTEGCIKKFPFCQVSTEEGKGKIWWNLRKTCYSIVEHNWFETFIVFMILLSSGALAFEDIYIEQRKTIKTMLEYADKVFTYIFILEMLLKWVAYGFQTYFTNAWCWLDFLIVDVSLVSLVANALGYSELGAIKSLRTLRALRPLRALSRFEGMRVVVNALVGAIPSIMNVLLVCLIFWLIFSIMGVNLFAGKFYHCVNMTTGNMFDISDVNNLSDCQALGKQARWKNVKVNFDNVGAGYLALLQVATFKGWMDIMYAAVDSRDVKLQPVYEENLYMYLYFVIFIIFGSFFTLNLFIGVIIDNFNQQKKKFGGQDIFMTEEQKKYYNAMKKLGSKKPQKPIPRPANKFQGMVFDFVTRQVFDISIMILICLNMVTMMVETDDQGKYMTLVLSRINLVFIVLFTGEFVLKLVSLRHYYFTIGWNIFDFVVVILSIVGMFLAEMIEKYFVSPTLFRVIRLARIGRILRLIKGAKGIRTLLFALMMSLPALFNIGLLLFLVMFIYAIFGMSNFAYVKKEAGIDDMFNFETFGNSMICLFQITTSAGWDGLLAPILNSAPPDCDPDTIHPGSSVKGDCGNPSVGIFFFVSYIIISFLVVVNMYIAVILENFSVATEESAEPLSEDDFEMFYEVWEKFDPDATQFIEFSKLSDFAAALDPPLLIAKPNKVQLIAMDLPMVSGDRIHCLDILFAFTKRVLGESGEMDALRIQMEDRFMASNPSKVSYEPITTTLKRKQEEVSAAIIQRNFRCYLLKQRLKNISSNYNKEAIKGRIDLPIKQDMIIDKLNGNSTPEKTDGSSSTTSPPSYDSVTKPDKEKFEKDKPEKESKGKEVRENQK

hNav1.5 = hNav1.5 (Homo sapiens, UniProt Q14524); conditions: for pIC50: IonWorks Quattro, read-out: IWQ Use Nav1.5; for IC50: IWQ Use Nav1.5 (μM)
hNav1.5, sequence (Q14524 whole entry, looked up): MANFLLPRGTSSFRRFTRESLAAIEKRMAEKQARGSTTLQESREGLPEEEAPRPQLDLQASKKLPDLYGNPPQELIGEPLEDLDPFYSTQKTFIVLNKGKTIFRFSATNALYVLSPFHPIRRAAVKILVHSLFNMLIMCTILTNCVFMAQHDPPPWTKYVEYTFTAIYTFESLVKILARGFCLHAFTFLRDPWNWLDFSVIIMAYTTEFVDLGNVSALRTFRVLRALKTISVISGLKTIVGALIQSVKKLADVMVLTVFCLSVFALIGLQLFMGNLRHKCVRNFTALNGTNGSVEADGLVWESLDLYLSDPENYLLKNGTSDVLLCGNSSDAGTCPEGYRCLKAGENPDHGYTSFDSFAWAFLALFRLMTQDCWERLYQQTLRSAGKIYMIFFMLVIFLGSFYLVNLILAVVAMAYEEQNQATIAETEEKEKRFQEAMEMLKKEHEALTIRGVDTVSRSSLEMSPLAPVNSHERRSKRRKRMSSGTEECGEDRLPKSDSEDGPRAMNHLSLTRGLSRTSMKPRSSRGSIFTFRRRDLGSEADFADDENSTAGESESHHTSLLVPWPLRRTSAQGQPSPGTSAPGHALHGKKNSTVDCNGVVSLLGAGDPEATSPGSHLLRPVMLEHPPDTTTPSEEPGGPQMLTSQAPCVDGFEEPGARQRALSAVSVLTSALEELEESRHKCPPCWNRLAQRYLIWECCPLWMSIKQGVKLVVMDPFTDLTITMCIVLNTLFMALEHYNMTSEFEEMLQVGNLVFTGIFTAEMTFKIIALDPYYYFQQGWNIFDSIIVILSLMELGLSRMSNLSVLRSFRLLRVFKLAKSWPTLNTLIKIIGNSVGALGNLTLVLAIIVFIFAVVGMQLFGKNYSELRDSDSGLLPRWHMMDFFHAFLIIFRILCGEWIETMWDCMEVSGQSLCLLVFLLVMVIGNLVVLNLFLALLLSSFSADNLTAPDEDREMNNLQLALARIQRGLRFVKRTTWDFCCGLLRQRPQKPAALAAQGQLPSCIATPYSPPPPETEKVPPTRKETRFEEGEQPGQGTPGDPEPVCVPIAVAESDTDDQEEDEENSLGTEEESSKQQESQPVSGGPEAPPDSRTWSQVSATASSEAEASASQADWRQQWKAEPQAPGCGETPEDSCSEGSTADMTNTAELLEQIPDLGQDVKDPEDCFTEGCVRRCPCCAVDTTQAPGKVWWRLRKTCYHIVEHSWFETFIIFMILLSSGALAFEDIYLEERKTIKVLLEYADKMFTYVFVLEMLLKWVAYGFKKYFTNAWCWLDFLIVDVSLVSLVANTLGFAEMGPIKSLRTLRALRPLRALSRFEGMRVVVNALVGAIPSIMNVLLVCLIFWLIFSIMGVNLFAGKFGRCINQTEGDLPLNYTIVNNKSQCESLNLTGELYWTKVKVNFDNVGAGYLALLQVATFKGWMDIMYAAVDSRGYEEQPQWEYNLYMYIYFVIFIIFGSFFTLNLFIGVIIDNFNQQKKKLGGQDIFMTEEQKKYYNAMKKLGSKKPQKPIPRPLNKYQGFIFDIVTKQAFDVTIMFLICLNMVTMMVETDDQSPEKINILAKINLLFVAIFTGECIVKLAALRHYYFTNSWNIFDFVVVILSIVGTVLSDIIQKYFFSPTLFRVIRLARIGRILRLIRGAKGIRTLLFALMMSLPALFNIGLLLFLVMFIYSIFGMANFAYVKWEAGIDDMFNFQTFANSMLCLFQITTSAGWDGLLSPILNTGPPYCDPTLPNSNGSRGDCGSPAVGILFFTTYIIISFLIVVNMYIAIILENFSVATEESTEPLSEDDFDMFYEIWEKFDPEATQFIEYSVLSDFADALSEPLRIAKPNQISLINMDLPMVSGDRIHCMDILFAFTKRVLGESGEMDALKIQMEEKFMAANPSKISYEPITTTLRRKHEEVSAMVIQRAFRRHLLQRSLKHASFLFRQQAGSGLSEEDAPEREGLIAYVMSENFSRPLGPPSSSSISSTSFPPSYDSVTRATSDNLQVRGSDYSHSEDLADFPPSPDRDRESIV

hNav1.7 = hNav1.7 (Homo sapiens, UniProt Q15858); format: cell-based
[1] = IonWorks Quattro, Use, read-out: IWQ Use Nav1.7

SMILES	pIC50 (hNav1.3; use-dependent block, hNav1.3)	pIC50 (hNav1.5; use-dependent block, hNav1.5)	pIC50 (hNav1.7)	IC50 (hNav1.5) [µM]	pIC50 (hNav1.7; IonWorks Quattro, use-dependent block, hNav1.7, read-out: IWQ Use Nav1.7)	pIC50 (hNav1.3; Use)	pIC50 (hNav1.5; Use)	pIC50 (hNav1.7; [1])
CC[C@H](C)[C@@H]1NC(=O)[C@@H]2CSSC[C@@H]3NC(=O)[C@H](C(C)C)NC(=O)[C@H](CC(C)C)NC(=O)[C@H](CC(N)=O)NC(=O)[C@@H]4CCCN4C(=O)[C@H](CCCNC(=N)N)NC(=O)[C@H](CSSC[C@H](NC(=O)[C@@H](N)CC(=O)O)C(=O)N[C@@H](CC(C)C)C(=O)NCC(=O)N[C@@H](C)C(=O)N[C@@H](Cc4c[nH]c5ccccc45)C(=O)N[C@@H](CCCNC(=N)N)C(=O)N[C@@H](CCCCN)C(=O)N2)NC(=O)[C@H](CSSC[C@@H](C(=O)N[C@@H](CCCCN)C(=O)N[C@@H](Cc2ccc(O)cc2)C(=O)N[C@H](C(=O)N[C@@H](Cc2ccccc2)C(N)=O)C(C)C)NC(=O)[C@H](Cc2c[nH]c4ccccc24)NC(=O)[C@H](CCCCN)NC(=O)[C@H](Cc2cnc[nH]2)NC(=O)[C@H]([C@@H](C)O)NC(=O)[C@H](CCCNC(=N)N)NC(=O)[C@H](CO)NC3=O)NC(=O)[C@H](CCCCN)NC(=O)[C@H](CC(=O)O)NC(=O)[C@H](CC(N)=O)NC(=O)[C@H](CC(=O)O)NC(=O)[C@@H]2CCCN2C1=O [compound 261] (H-DCLGAWRKCIPDNDKCCRPNLVCSRTHKWCKYVF-NH2; disulfide 2-17, 9-23, 16-30)	6.17	5.30	6.00					
CC[C@H](C)[C@@H]1NC(=O)[C@@H]2CSSC[C@@H]3NC(=O)[C@H](C(C)C)NC(=O)[C@H](CC(C)C)NC(=O)[C@H](CC(N)=O)NC(=O)[C@@H]4CCCN4C(=O)[C@H](CCCNC(=N)N)NC(=O)[C@H](CSSC[C@H](NC(=O)[C@@H](N)CC(=O)O)C(=O)N[C@@H](CC(C)C)C(=O)NCC(=O)N[C@@H](C)C(=O)N[C@@H](Cc4ccccc4)C(=O)N[C@@H](CCCNC(=N)N)C(=O)N[C@@H](CCCCN)C(=O)N2)NC(=O)[C@H](CSSC[C@@H](C(=O)N[C@@H](CCCCN)C(=O)N[C@@H](Cc2ccc(O)cc2)C(=O)N[C@H](C(=O)N[C@@H](Cc2ccccc2)C(N)=O)C(C)C)NC(=O)[C@H](Cc2c[nH]c4ccccc24)NC(=O)[C@H](CCCCN)NC(=O)[C@H](Cc2cnc[nH]2)NC(=O)[C@H](CC(C)C)NC(=O)[C@H](CCCNC(=N)N)NC(=O)[C@H](CO)NC3=O)NC(=O)[C@H](CCCCN)NC(=O)[C@H](CC(=O)O)NC(=O)[C@H](CC(N)=O)NC(=O)[C@H](CC(=O)O)NC(=O)[C@@H]2CCCN2C1=O [compound 263] (H-DCLGAFRKCIPDNDKCCRPNLVCSRLHKWCKYVF-NH2; disulfide 2-17, 9-23, 16-30)	7.30			5	7.10			
CSCC[C@@H]1NC(=O)[C@H](Cc2ccccc2)NC(=O)CNC(=O)[C@H](CC(C)C)NC(=O)[C@@H](NC(=O)[C@@H](N)CC(=O)O)CSSC[C@@H]2NC(=O)[C@@H]3CSSC[C@@H](C(=O)N[C@@H](CCCCN)C(=O)N[C@@H](Cc4ccc(O)cc4)C(=O)N[C@H](C(=O)N[C@@H](Cc4ccccc4)C(N)=O)C(C)C)NC(=O)[C@H](Cc4c[nH]c5ccccc45)NC(=O)[C@H](CCCCN)NC(=O)[C@H](Cc4cnc[nH]4)NC(=O)[C@H]([C@@H](C)O)NC(=O)[C@H](CCCNC(=N)N)NC(=O)[C@H](CO)NC(=O)[C@H](CSSC[C@H](NC(=O)[C@H](CCCCN)NC(=O)[C@H](CCCNC(=N)N)NC1=O)C(=O)N[C@@H](CC(C)C)C(=O)N1CCC[C@H]1C(=O)N[C@@H](CC(=O)O)C(=O)N[C@@H](CC(N)=O)C(=O)N[C@@H](CC(=O)O)C(=O)N[C@@H](CCCCN)C(=O)N3)NC(=O)[C@H](C(C)C)NC(=O)[C@H](CC(C)C)NC(=O)[C@H](CC(N)=O)NC(=O)[C@@H]1CCCN1C(=O)[C@H](CCCNC(=N)N)NC2=O [compound 303] (H-DCLGFMRKCLPDNDKCCRPNLVCSRTHKWCKYVF-NH2; disulfide 2-17, 9-23, 16-30)						7.10	5.09	6.89
CSCC[C@@H]1NC(=O)[C@H](Cc2ccccc2)NC(=O)CNC(=O)[C@H](CC(C)C)NC(=O)[C@@H](NC(=O)[C@@H](N)CC(=O)O)CSSC[C@@H]2NC(=O)[C@@H]3CSSC[C@@H](C(=O)N[C@@H](CCCCN)C(=O)N[C@@H](Cc4ccc(O)cc4)C(=O)N[C@H](C(=O)N[C@@H](Cc4ccccc4)C(N)=O)C(C)C)NC(=O)[C@H](Cc4c[nH]c5ccccc45)NC(=O)[C@H](CCCCN)NC(=O)[C@H](Cc4c[nH]cn4)NC(=O)[C@H]([C@@H](C)O)NC(=O)[C@H](CCCNC(=N)N)NC(=O)[C@H](CO)NC(=O)[C@H](CSSC[C@H](NC(=O)[C@H](CCCCN)NC(=O)[C@H](CCCNC(=N)N)NC1=O)C(=O)N1CCC[C@H]1C(=O)N1CCC[C@H]1C(=O)N[C@@H](CC(=O)O)C(=O)N[C@@H](CC(N)=O)C(=O)N[C@@H](CC(=O)O)C(=O)N[C@@H](CCCCN)C(=O)N3)NC(=O)[C@H](C(C)C)NC(=O)[C@H](CC(C)C)NC(=O)[C@H](CC(N)=O)NC(=O)[C@@H]1CCCN1C(=O)[C@H](CCCNC(=N)N)NC2=O [compound 308] (H-DCLGFMRKCPPDNDKCCRPNLVCSRTHKWCKYVF-NH2; disulfide 2-17, 9-23, 16-30)						6.62	< 5.30	6.40
CSCC[C@@H]1NC(=O)[C@H](Cc2ccccc2)NC(=O)CNC(=O)[C@H](CC(C)C)NC(=O)[C@@H](NC(=O)[C@@H](N)CC(=O)O)CSSC[C@@H]2NC(=O)[C@@H]3CSSC[C@@H](C(=O)N[C@@H](CCCCN)C(=O)N[C@@H](Cc4ccc(O)cc4)C(=O)N[C@H](C(=O)N[C@@H](Cc4ccccc4)C(N)=O)C(C)C)NC(=O)[C@H](Cc4c[nH]c5ccccc45)NC(=O)[C@H](CCCCN)NC(=O)[C@H](Cc4c[nH]cn4)NC(=O)[C@H]([C@@H](C)O)NC(=O)[C@H](CCCNC(=N)N)NC(=O)[C@H](CO)NC(=O)[C@H](CSSC[C@H](NC(=O)[C@H](CCCCN)NC(=O)[C@H](CCCNC(=N)N)NC1=O)C(=O)N[C@@H](Cc1ccc(C(=O)O)cc1)C(=O)N1CCC[C@H]1C(=O)N[C@@H](CC(=O)O)C(=O)N[C@@H](CC(N)=O)C(=O)N[C@@H](CC(=O)O)C(=O)N[C@@H](CCCCN)C(=O)N3)NC(=O)[C@H](C(C)C)NC(=O)[C@H](CC(C)C)NC(=O)[C@H](CC(N)=O)NC(=O)[C@@H]1CCCN1C(=O)[C@H](CCCNC(=N)N)NC2=O [compound 310]						6.64	5.16	6.55
CSCC[C@@H]1NC(=O)[C@H](Cc2ccccc2)NC(=O)CNC(=O)[C@H](CC(C)C)NC(=O)[C@@H](NC(=O)[C@@H](N)CC(=O)O)CSSC[C@@H]2NC(=O)[C@@H]3CSSC[C@@H](C(=O)N[C@@H](CCCCN)C(=O)N[C@@H](Cc4ccc(O)cc4)C(=O)N[C@H](C(=O)N[C@@H](Cc4ccccc4)C(N)=O)C(C)C)NC(=O)[C@H](Cc4c[nH]c5ccccc45)NC(=O)[C@H](CCCCN)NC(=O)[C@H](Cc4c[nH]cn4)NC(=O)[C@H]([C@@H](C)O)NC(=O)[C@H](CCCNC(=N)N)NC(=O)[C@H](CO)NC(=O)[C@H](CSSC[C@H](NC(=O)[C@H](CCCCN)NC(=O)[C@H](CCCNC(=N)N)NC1=O)C(=O)N[C@@H](Cc1ccccn1)C(=O)N1CCC[C@H]1C(=O)N[C@@H](CC(=O)O)C(=O)N[C@@H](CC(N)=O)C(=O)N[C@@H](CC(=O)O)C(=O)N[C@@H](CCCCN)C(=O)N3)NC(=O)[C@H](C(C)C)NC(=O)[C@H](CC(C)C)NC(=O)[C@H](CC(N)=O)NC(=O)[C@@H]1CCCN1C(=O)[C@H](CCCNC(=N)N)NC2=O [compound 311]						7.40	5.05	6.72
CC[C@H](C)[C@@H]1NC(=O)[C@@H]2CSSC[C@@H]3NC(=O)[C@H](C(C)C)NC(=O)[C@H](CC(C)C)NC(=O)[C@H](CC(N)=O)NC(=O)[C@@H]4CCCN4C(=O)[C@H](CCCNC(=N)N)NC(=O)[C@H](CSSC[C@H](NC(=O)[C@@H](N)CC(=O)O)C(=O)N[C@@H](CC(C)C)C(=O)NCC(=O)N[C@@H](Cc4ccccc4)C(=O)N[C@@H](CCSC)C(=O)N[C@@H](CCCNC(=N)N)C(=O)N[C@@H](CCCCN)C(=O)N2)NC(=O)[C@H](CSSC[C@@H](C(=O)N[C@@H](CCCCN)C(=O)N[C@@H](Cc2ccc(O)cc2)C(=O)N[C@H](C(=O)N[C@@H](Cc2ccccc2)C(N)=O)C(C)C)NC(=O)[C@H](Cc2c[nH]c4ccccc24)NC(=O)[C@H](CCCCN)NC(=O)[C@H](Cc2c[nH]cn2)NC(=O)[C@H]([C@@H](C)O)NC(=O)[C@H](CCCNC(=N)N)NC(=O)[C@H](CO)NC3=O)NC(=O)[C@H](CCCNC(=NC)NC)NC(=O)[C@H](CC(=O)O)NC(=O)[C@H](CC(N)=O)NC(=O)[C@H](CC(=O)O)NC(=O)[C@@H]2CCCN2C1=O [compound 312] (H-DCLGFMRKCIPDND[Arg(Me2s)]CCRPNLVCSRTHKWCKYVF-NH2; disulfide 2-17, 9-23, 16-30)						6.82	5.01	6.85
CC[C@H](C)[C@@H]1NC(=O)[C@@H]2CSSC[C@@H]3NC(=O)[C@H](C(C)C)NC(=O)[C@H](CC(C)C)NC(=O)[C@H](CC(N)=O)NC(=O)[C@@H]4CCCN4C(=O)[C@H](CCCNC(=N)N)NC(=O)[C@H](CSSC[C@H](NC(=O)[C@@H](N)CC(=O)O)C(=O)N[C@@H](CC(C)C)C(=O)NCC(=O)N[C@@H](Cc4ccccc4)C(=O)N[C@@H](CCSC)C(=O)N[C@@H](CCCNC(=N)N)C(=O)N[C@@H](CCCCN)C(=O)N2)NC(=O)[C@H](CSSC[C@@H](C(=O)N[C@@H](CCCCN)C(=O)N[C@@H](Cc2ccc(O)cc2)C(=O)N[C@H](C(=O)N[C@@H](Cc2ccccc2)C(N)=O)C(C)C)NC(=O)[C@H](Cc2c[nH]c4ccccc24)NC(=O)[C@H](CCCCN)NC(=O)[C@H](Cc2c[nH]cn2)NC(=O)[C@H]([C@@H](C)O)NC(=O)[C@H](CCCNC(=N)N)NC(=O)[C@H](CO)NC3=O)NC(=O)[C@H](CCCCN(C)C)NC(=O)[C@H](CC(=O)O)NC(=O)[C@H](CC(N)=O)NC(=O)[C@H](CC(=O)O)NC(=O)[C@@H]2CCCN2C1=O [compound 313]				10.1		6.89		6.72
